{"source": "patent US6020341A", "about": "“Enediyne quinone imines and methods of preparation and use thereof” (priority 1997, dated 2000)", "key": {"MT-2 leukemic cells": {"system": "MT-2 leukemic cells", "experiment": "Growth inhibition, XTT assay, MT-2", "format": "cell-based", "settings": "Table 8, MT-2, XTT", "procedure": "Cells were platted on day 1, drug was added on day 2, and XTT assays (for HL-60, MT-2, MT-4 leukemic cells) or SRB assays (for 833K and SK-Br-3 solid tumor cells) were carried out on day 5."}, "solid tumor": {"system": "solid tumor", "experiment": "In vivo toxicity and efficacy in tumor bearing mice (Tables 5-7)", "set-up": "species or system mouse", "settings": "i.p., in words"}, "B-16 melanoma": {"system": "B-16 melanoma", "experiment": "Antitumor activity against B-16 melanoma in mice (s.c. tumor, i.p. treatment)", "format": "in vivo, mouse", "procedure": "^a Tumor (2 × 10^6 cells) was inoculated s.c. Treatment\nstarted day 4, QD × 5, i.p.; control had nine mice, and each dose\ntwo mice; tumor size was evaluated on Day 7 after the beginning of\nstarted day 4, I.P., QD × 5; control had 3 mice, and each dose had\nmice; Tumor size was evaluated on day 7 after the beginning of treatment."}, "MT2 cells": {"system": "MT2 cells", "experiment": "Cytotoxicity, MT2", "format": "cell-based", "settings": "Table 15, MT2"}, "[1]": {"system": "Lewis lung adenocarcinoma", "experiment": "Anticancer activity in B6D2F1 mice bearing Lewis lung adenocarcinoma", "format": "in vivo, mouse", "procedure": "^a Tumor (2.5 × 10E6 cells) was inoculated S.C. on day (-3).\nTreatment started on day 1, I.P., Q.D.X5. Control had 6 mice and each dos\nhad 5 mice. Tumor size was evaluated on day 7, day 10 and day 14."}, "CCRF-CEM/VBL cells": {"system": "CCRF-CEM/VBL cells", "experiment": "Cytotoxicity, CCRF-CEM resistant to vinblastine", "format": "cell-based, human", "settings": "for IC50 / IC90: Homo sapiens, CCRF-CEM; for IC90: read-out: Cytotoxic Concentration IC90", "description": "(§1) | cell growth by 50% (IC50) in μM."}, "CCRF-CEM/VM-1 cells": {"system": "CCRF-CEM/VM-1 cells", "experiment": "Cytotoxicity, CCRF-CEM/VM-1", "format": "cell-based, human", "settings": "for IC50 / IC90: Homo sapiens, CCRF-CEM; for IC90: read-out: Cytotoxic Concentration IC90", "description": "as §1"}, "DC-3F cells": {"system": "DC-3F cells", "experiment": "Single drug effect, SRB assay, DC-3F", "format": "cell-based, Chinese hamster", "settings": "Cricetulus griseus, DC3F, Table 10, DC-3F, 72 h, read-out: Dm"}, "[2]": {"settings": "Table 6, 0.2 mg/kg i.p. QD×5, day 7"}, "[3]": {"settings": "Table 6, 0.5 mg/kg i.p. QD×5, day 7"}, "[4]": {"settings": "Table 6, 2.0 mg/kg i.p. QD×5, day 7"}, "[5]": {"settings": "Table 11, 0.5 mg/kg i.p. Q.D.X5, Day 7"}, "[6]": {"settings": "Table 11, 0.5 mg/kg i.p. Q.D.X5, Day 10"}, "[7]": {"settings": "Table 11, 1.0 mg/kg i.p. Q.D.X5, Day 7"}, "[8]": {"settings": "Table 11, 1.0 mg/kg i.p. Q.D.X5, Day 10"}, "[9]": {"settings": "Table 11, 1.5 mg/kg i.p. Q.D.X5, Day 7"}, "[10]": {"settings": "Table 11, 1.5 mg/kg i.p. Q.D.X5, Day 10"}, "[11]": {"settings": "Table 11, 2.0 mg/kg i.p. Q.D.X5, Day 7"}, "[12]": {"settings": "Table 11, 2.0 mg/kg i.p. Q.D.X5, Day 10"}, "[13]": {"settings": "Table 14, vinblastine-resistant (VLB100)"}, "[14]": {"settings": "Table 3, CCRF-CEM/VBL, EQI-6 = (1)"}, "[15]": {"settings": "Table 3, CCRF-CEM/VM-1, EQI-6 = (1)"}}, "note": "Read-outs that look alike come from different tables or passages of the source.", "data": [{"smiles": "CO[C@@]12[C@H](COC(N)=O)C3=C(C(=O)C(C)=C(N)C3=O)N1C[C@@H]1N[C@@H]12", "note": "[mitomycin C]", "values": [{"measurement": "IC50", "setting": "MT-2 leukemic cells", "value": 100, "unit": "nM"}, {"measurement": "solid tumor growth inhibition / therapeutic efficacy", "setting": "solid tumor", "value": "Therapeutic efficacy in mice for both appeared similar"}, {"measurement": "tumor inhibition", "setting": "B-16 melanoma; 0.5 mg/kg i.p. QDx5, B-16 melanoma", "value": 24.6, "unit": "%"}, {"measurement": "AVE TUMOR VOLUME (T/C)", "setting": "B-16 melanoma; [2]", "value": 0.952}, {"measurement": "AWC (average weight change)", "setting": "B-16 melanoma; [2]", "value": -1.9, "unit": "g"}, {"measurement": "AVE TUMOR VOLUME (T/C)", "setting": "B-16 melanoma; [3]", "value": 0.756}, {"measurement": "AWC (average weight change)", "setting": "B-16 melanoma; [3]", "value": -0.9, "unit": "g"}, {"measurement": "AVE TUMOR VOLUME (T/C)", "setting": "B-16 melanoma; [4]", "value": 0.143}, {"measurement": "AWC (average weight change)", "setting": "B-16 melanoma; [4]", "value": "+0.4 g"}, {"measurement": "IC50", "setting": "MT2 cells; Homo sapiens, read-out: Cytotoxic Concentration IC50", "value": 169, "unit": "nM"}, {"measurement": "IC90", "setting": "MT2 cells; Homo sapiens, read-out: Cytotoxic Concentration IC90", "value": 398, "unit": "nM"}, {"measurement": "Cytotoxic Concentration IC95", "setting": "MT2 cells", "value": 532, "unit": "nM"}, {"measurement": "AWC (average weight change)", "setting": "[1]; [5]", "value": -1.5, "unit": "g"}, {"measurement": "Avg Tumor Vol (T/C)", "setting": "[1]; [5]", "value": 0.530}, {"measurement": "AWC (average weight change)", "setting": "[1]; [6]", "value": -0.1, "unit": "g"}, {"measurement": "Avg Tumor Vol (T/C)", "setting": "[1]; [6]", "value": 0.712}, {"measurement": "AWC (average weight change)", "setting": "[1]; [7]", "value": -0.8, "unit": "g"}, {"measurement": "Avg Tumor Vol (T/C)", "setting": "[1]; [7]", "value": 0.380}, {"measurement": "AWC (average weight change)", "setting": "[1]; [8]", "value": -0.9, "unit": "g"}, {"measurement": "Avg Tumor Vol (T/C)", "setting": "[1]; [8]", "value": 0.451}, {"measurement": "AWC (average weight change)", "setting": "[1]; [9]", "value": -1.5, "unit": "g"}, {"measurement": "Avg Tumor Vol (T/C)", "setting": "[1]; [9]", "value": 0.340}, {"measurement": "AWC (average weight change)", "setting": "[1]; [10]", "value": -1.3, "unit": "g"}, {"measurement": "Avg Tumor Vol (T/C)", "setting": "[1]; [10]", "value": 0.402}, {"measurement": "mortality", "setting": "[1]; Table 11, 2.0 mg/kg i.p. Q.D.X5", "value": "One of 5 mice died on day 7"}, {"measurement": "AWC (average weight change)", "setting": "[1]; [11]", "value": -1.8, "unit": "g"}, {"measurement": "Avg Tumor Vol (T/C)", "setting": "[1]; [11]", "value": 0.286}, {"measurement": "AWC (average weight change)", "setting": "[1]; [12]", "value": 1.6, "unit": "g"}, {"measurement": "Avg Tumor Vol (T/C)", "setting": "[1]; [12]", "value": 0.485}, {"measurement": "IC50", "setting": "CCRF-CEM/VBL cells; Table 2, CCRF/VBL (MDR/pg-p), read-out: concentration required to inhibit cell growth by 50% (IC50)", "value": 566, "unit": "nM"}, {"measurement": "IC50", "setting": "CCRF-CEM/VBL cells; Table 3, CCRF-CEM/VBL, read-out: Cytotoxic Concentration IC50", "value": 566, "unit": "nM"}, {"measurement": "IC90", "setting": "CCRF-CEM/VBL cells; Table 3, CCRF-CEM/VBL", "value": 2330, "unit": "nM"}, {"measurement": "IC50", "setting": "CCRF-CEM/VBL cells; Table 14, vinblastine-resistant (VLB100), read-out: Cytotoxic Concentration IC50", "value": 917, "unit": "nM"}, {"measurement": "IC90", "setting": "CCRF-CEM/VBL cells; [13]", "value": 2400, "unit": "nM"}, {"measurement": "Cytotoxic Concentration IC95", "setting": "CCRF-CEM/VBL cells; Table 3, CCRF-CEM/VBL", "value": 3770, "unit": "nM"}, {"measurement": "ratio of IC50 to EQI-6 (in parentheses)", "setting": "CCRF-CEM/VBL cells; [14]", "value": 299.5, "unit": "×"}, {"measurement": "ratio of IC90 to EQI-6 (in parentheses)", "setting": "CCRF-CEM/VBL cells; [14]", "value": 375.8, "unit": "×"}, {"measurement": "ratio of IC95 to EQI-6 (in parentheses)", "setting": "CCRF-CEM/VBL cells; [14]", "value": 405.4, "unit": "×"}, {"measurement": "Cytotoxic Concentration IC95", "setting": "CCRF-CEM/VBL cells; [13]", "value": 3327, "unit": "nM"}, {"measurement": "IC50", "setting": "CCRF-CEM/VM-1 cells; Table 2, CCRF/VM-1 (MDR/TopoII), read-out: concentration required to inhibit cell growth by 50% (IC50)", "value": 216, "unit": "nM"}, {"measurement": "IC50", "setting": "CCRF-CEM/VM-1 cells; Table 3, CCRF-CEM/VM-1, read-out: Cytotoxic Concentration IC50", "value": 216, "unit": "nM"}, {"measurement": "IC90", "setting": "CCRF-CEM/VM-1 cells; Table 3, CCRF-CEM/VM-1", "value": 895, "unit": "nM"}, {"measurement": "IC50", "setting": "CCRF-CEM/VM-1 cells; Table 14, CCRF-CEM/VM-1, read-out: Cytotoxic Concentration IC50", "value": 113, "unit": "nM"}, {"measurement": "IC90", "setting": "CCRF-CEM/VM-1 cells; Table 14, CCRF-CEM/VM-1", "value": 675, "unit": "nM"}, {"measurement": "Cytotoxic Concentration IC95", "setting": "CCRF-CEM/VM-1 cells; Table 3, CCRF-CEM/VM-1", "value": 1373, "unit": "nM"}, {"measurement": "ratio of IC50 to EQI-6 (in parentheses)", "setting": "CCRF-CEM/VM-1 cells; [15]", "value": 113.7, "unit": "×"}, {"measurement": "ratio of IC90 to EQI-6 (in parentheses)", "setting": "CCRF-CEM/VM-1 cells; [15]", "value": 45.5, "unit": "×"}, {"measurement": "ratio of IC95 to EQI-6 (in parentheses)", "setting": "CCRF-CEM/VM-1 cells; [15]", "value": 90.9, "unit": "×"}, {"measurement": "Cytotoxic Concentration IC95", "setting": "CCRF-CEM/VM-1 cells; Table 14, CCRF-CEM/VM-1", "value": 1239, "unit": "nM"}, {"measurement": "IC50", "setting": "DC-3F cells", "value": 59, "unit": "nM"}]}]}
